Laboratory results reported in patent US9682953B2, “Amide compounds, compositions and applications thereof” (Advinus Therapeutics Limited, priority 2011, dated 2017).
Structures can show the parent of a compound that is named as a salt.

These compounds were tested against human Fatty Acid Amide Hydrolase (FAAH) (Homo sapiens (Human), UniProt O00519) (assay: biochemical). Conditions: hFAAH IC50.
Chain of human Fatty Acid Amide Hydrolase (FAAH) (O00519 30-579): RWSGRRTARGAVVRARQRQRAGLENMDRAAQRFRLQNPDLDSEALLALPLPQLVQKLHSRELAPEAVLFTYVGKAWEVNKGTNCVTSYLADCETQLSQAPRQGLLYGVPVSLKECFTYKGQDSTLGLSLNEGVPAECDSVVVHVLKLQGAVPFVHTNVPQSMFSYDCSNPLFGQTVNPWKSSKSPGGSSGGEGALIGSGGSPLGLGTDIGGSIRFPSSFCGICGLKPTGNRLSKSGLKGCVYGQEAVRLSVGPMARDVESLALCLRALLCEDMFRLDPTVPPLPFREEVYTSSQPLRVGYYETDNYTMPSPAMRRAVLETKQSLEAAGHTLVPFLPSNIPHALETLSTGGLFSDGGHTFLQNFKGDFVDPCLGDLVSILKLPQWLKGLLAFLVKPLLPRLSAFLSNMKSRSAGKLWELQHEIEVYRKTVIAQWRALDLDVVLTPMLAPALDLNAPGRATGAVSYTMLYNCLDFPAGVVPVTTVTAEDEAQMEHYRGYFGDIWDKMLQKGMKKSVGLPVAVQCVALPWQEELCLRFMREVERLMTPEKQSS
With O=C(NC1CCC(=Cc2cccc(Oc3ccc(C(F)(F)F)cn3)c2)CC1)c1cccnc1 (stereo not shown) [Example 2.1, N-[4-[[3-[[5-(Trifluoromethyl)-2-pyridyl]oxy]phenyl]methylene]cyclohexyl]pyridine-3-carboxamide] the IC50 was 2 nM. With O=C(Nc1cccnc1)C1CCC(=Cc2cccc(Oc3ccc(C(F)(F)F)cn3)c2)CC1 (stereo not shown) [Example 1.2, N-(3-Pyridyl)-4-[[3-[[5-(trifluoromethyl)-2-pyridyl]oxy]phenyl]-methylene]cyclohexanecarboxamide hydrochloride] the IC50 was 17 nM. Work on O=C(NC1CCC(=Cc2cccc(Oc3ccc(C(F)(F)F)cn3)c2)CC1)c1cccnc1 (single isomer, unassigned; (-)) [Example 20.A-2, (−)-N-[4-[[3-[[5-(Trifluoromethyl)-2-pyridyl]oxy]phenyl]methylene]cyclohexyl]pyridine-3-carboxamide] yielded an IC50 of 0.7 nM.

Same assay, conditions: human FAAH; read-out: hFAAH IC50
Compound Cc1nc(Oc2cccc(C=C3CCC(NC(=O)c4cnc(N)nc4)CC3)c2)ccc1Cl (single isomer, unassigned; (+)) [Example 20.A-21, (+)-2-Amino-N-[4-[[3-[(5-chloro-6-methyl-2-pyridyl)oxy]phenyl]methylene]cyclohexyl]pyrimidine-5-carboxamide] has an IC50 of 9 nM. Work on O=C(Nc1cccnn1)C1CCC(=Cc2cccc(Oc3ccc(C(F)(F)F)cn3)c2)CC1 (stereo not shown) [Example 1.A-1, N-Pyridazin-3-yl-4-[[3-[[5-(trifluoromethyl)-2-pyridyl]oxy]phenyl]methylene]cyclohexanecarboxamide] yielded an IC50 of 17 nM. For Nc1ncccc1C(=O)NC1CCC(=Cc2cccc(Oc3ccc(C(F)(F)F)cn3)c2)CC1 (stereo not shown) [Example 2.C-5, 2-Amino-N-[4-[[3-[[5-(trifluoromethyl)-2-pyridyl]oxy]phenyl]methylene]cyclohexyl]pyridine-3-carboxamide], the IC50 was 37 nM. Work on O=C(NC1CCC(=Cc2cccc(Oc3ccc(C(F)(F)F)cn3)c2)CC1)c1ccc(O)nc1 (stereo not shown) [Example 2.C-3, 6-Hydroxy-N-[4-[[3-[[5-(trifluoromethyl)-2-pyridyl]oxy]phenyl]methylene]cyclohexyl]pyridine-3-carboxamide] yielded an IC50 of 19 nM. Cc1cc(C(=O)NC2CCC(=Cc3cccc(Oc4ccc(C(F)(F)F)cn4)c3)CC2)cnc1N (single isomer, unassigned; (+)) [Example 20.A-5, (+)-6-Amino-5-methyl-N-[4-[[3-[[5-(trifluoromethyl)-2-pyridyl]oxy]phenyl]methylene]cyclohexyl]pyridine-3-carboxamide] showed an IC50 of 247 nM.

Same assay, conditions: read-out: hFAAH % inhibition at 100 nM; human FAAH; 100 nM (tier I)
O=C(O)Cn1cc(C(=O)NC2CCC(=Cc3cccc(Oc4ccc(C(F)(F)F)cn4)c3)CC2)cn1 (stereo not shown) [Example 8.A-2, 2-[4-[[4-[[3-[[5-(Trifluoromethyl)-2-pyridyl]oxy]phenyl]methylene]cyclohexyl]carbamoyl]pyrazol-1-yl]acetic acid] showed an inhibition at 0.1 µM of 40%. Cc1[nH]nc(C(F)(F)F)c1C(=O)NC1CCC(=Cc2cccc(Oc3ccc(C(F)(F)F)cn3)c2)CC1 (stereo not shown) [Example 2.A-36, 5-Methyl-3-(trifluoromethyl)-N-[4-[[3-[[5-(trifluoromethyl)-2-pyridyl]oxy]phenyl]methylene]cyclohexyl]-1H-pyrazole-4-carboxamide] was tested, and the inhibition at 0.1 µM was 50%.

Same assay, conditions: read-out: hFAAH IC50
O=C(NC1CCC(=Cc2cccc(Oc3ccc(C(F)(F)F)cn3)c2)CC1)c1cncnc1 (single isomer, unassigned; (-)) [Example 20.A-20, (−)-N-[4-[[3-[[5-(Trifluoromethyl)-2-pyridyl]oxy]phenyl]methylene]cyclohexyl]pyrimidine-5-carboxamide] was tested, and the IC50 was 0.8 nM. Work on Nc1ncc(C(=O)NC2CCC(=Cc3cccc(Oc4ccc(C(F)(F)F)cn4)c3)CC2)cn1 (single isomer, unassigned; (+)) [Example 20.A-9] yielded an IC50 of 40 nM. Work on O=C(NC1CCC(=Cc2cccc(Oc3ccc(C(F)(F)F)cn3)c2)CC1)c1cncnc1 (single isomer, unassigned; (+)) [Example 20.A-19, (+)-N-[4-[[3-[[5-(trifluoromethyl)-2-pyridyl]oxy]phenyl]methylene]cyclohexyl]pyrimidine-5-carboxamide] yielded an IC50 of 14.3 nM.
